Test results taken from PubChem BioAssay (NCI).
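Protocol summary: plate cells (96-well), add compound at 5 concentrations, incubate 48 h, interpolate endpoints linearly. TGI marks complete inhibition of growth.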

Columns and labels:
Experiment in all cases: DTP human tumour cell line panel, 48 h
U251 CNS = tested on: U251 CNS
EKVX NSCLC = tested on: EKVX NSCLC
SN12C renal = tested on: SN12C renal
NCI/ADR-RES ovarian = tested on: NCI/ADR-RES ovarian
LOX IMVI melanoma = tested on: LOX IMVI melanoma
IGROV1 ovarian = tested on: IGROV1 ovarian
SF-539 CNS = tested on: SF-539 CNS
MALME-3M melanoma = tested on: MALME-3M melanoma
MDA-MB-231 breast = tested on: MDA-MB-231 breast
HOP-62 NSCLC = tested on: HOP-62 NSCLC
MDA-MB-435 = tested on: MDA-MB-435
HCT-15 colon = tested on: HCT-15 colon
HCC-2998 colon = tested on: HCC-2998 colon
HCT-116 colon = tested on: HCT-116 colon
T-47D breast = tested on: T-47D breast
BT-549 breast = tested on: BT-549 breast
COLO 205 colon = tested on: COLO 205 colon
KM12 colon = tested on: KM12 colon
UACC-62 melanoma = tested on: UACC-62 melanoma
K-562 leukemia = tested on: K-562 leukemia
A498 renal = tested on: A498 renal
786-0 renal = tested on: 786-0 renal
NCI-H23 lung = tested on: NCI-H23 lung
SNB-75 CNS = tested on: SNB-75 CNS
OVCAR-4 ovarian = tested on: OVCAR-4 ovarian
HT29 colon = tested on: HT29 colon
OVCAR-5 ovarian = tested on: OVCAR-5 ovarian
RPMI-8226 leukemia = tested on: RPMI-8226 leukemia
TK-10 renal = tested on: TK-10 renal
SF-268 CNS = tested on: SF-268 CNS
ACHN renal = tested on: ACHN renal
M14 melanoma = tested on: M14 melanoma
CAKI-1 renal = tested on: CAKI-1 renal
HOP-92 NSCLC = tested on: HOP-92 NSCLC
SNB-19 CNS = tested on: SNB-19 CNS
PC-3 prostate = tested on: PC-3 prostate
OVCAR-8 ovarian = tested on: OVCAR-8 ovarian
A549 NSCLC = tested on: A549 NSCLC
SR leukemia = tested on: SR leukemia
NCI-H460 lung = tested on: NCI-H460 lung
OVCAR-3 ovarian = tested on: OVCAR-3 ovarian
RXF 393 renal = tested on: RXF 393 renal
NCI-H522 lung = tested on: NCI-H522 lung
SK-MEL-5 melanoma = tested on: SK-MEL-5 melanoma
SW-620 colon = tested on: SW-620 colon
HS 578T breast = tested on: HS 578T breast
UO-31 renal = tested on: UO-31 renal
SK-MEL-28 melanoma = tested on: SK-MEL-28 melanoma
MCF7 breast = tested on: MCF7 breast
MDA-N = tested on: MDA-N
MOLT-4 leukemia = tested on: MOLT-4 leukemia
UACC-257 melanoma = tested on: UACC-257 melanoma
DU-145 prostate = tested on: DU-145 prostate
SK-MEL-2 melanoma = tested on: SK-MEL-2 melanoma
NCI-H226 lung = tested on: NCI-H226 lung
SF-295 CNS = tested on: SF-295 CNS
HL-60(TB) leukemia = tested on: HL-60(TB) leukemia
SK-OV-3 ovarian = tested on: SK-OV-3 ovarian
CCRF-CEM leukemia = tested on: CCRF-CEM leukemia

Measured: TGI

Cc1cc2ccccc2c[n+]1CC(O)C[n+]1cc2ccccc2cc1C
not listed: HL-60(TB) leukemia | SK-OV-3 ovarian | CCRF-CEM leukemia
> 100 µM: all other assays above

N#CCCC1C(C#N)C2CC1C1C3C=CC(C3)C21 (centres undefined)
not listed: U251 CNS | SN12C renal | SF-539 CNS | HOP-62 NSCLC | A498 renal | NCI-H460 lung
> 100 µM: all other assays above
